The record followed here is patent US20250042876A1, “HERBICIDAL PYRAZOLE PYRIMIDINE COMPOUNDS” (SYNGENTA CROP PROTECTION AG, priority 2021, published 2025).

What all share (assay type): in vivo
Common to all, as to conditions: 250 g/ha, evaluated after 13 days

In assay [1] the test system is Amaranthus palmeri (AMAPA). In words: Post-emergence herbicidal test, glasshouse. The protocol:
(§1) Seeds of a variety of test species are sown in standard soil in pots Amaranthus palmeri (AMAPA), Amaranthus retoflexus (AMARE), Setaria faberi (SETFA), Echinochloa crus-galli (ECHCG), Ipomoea hederacea (IPOHE)). After cultivation for one day (pre-emergence) or after 8 days cultivation (post-emergence) under controlled conditions in a glasshouse (at 24/16° C., day/night; 14 hours light; 65% humidity), the plants are sprayed with an aqueous spray solution derived from the formulation of the technical active ingredient in acetone/water (50:50) solution containing 0.5% Tween 20 (polyoxyethelyene sorbitan monolaurate, CAS RN 9005-64-5). Compounds are applied at 250 g/ha unless otherwise stated. The test plants are then grown in a glasshouse under controlled conditions in a glasshouse (at 24/16° C., day/night; 14 hours light; 65% humidity) and watered twice daily. After 13 days for pre and post-emergence, the test is evaluated for the percentage damage caused to the plant. The biological activities are shown in the following table on a five-point scale (5=81-100%; 4=61-80%; 3=41-60%; 2=21-40%; 1=0-20%).

Assay [2] deals with Amaranthus retoflexus (AMARE). The experiment in a line: Post-emergence herbicidal test, glasshouse. The protocol: as §1
Assay [3] relates to Echinochloa crus-galli (ECHCG). The experiment in a line: Post-emergence herbicidal test, glasshouse. The protocol: as §1
For assay [4], the system named is Ipomoea hederacea (IPOHE). The experiment in a line: Post-emergence herbicidal test, glasshouse. Here is the method:
as §1

Assay [5] deals with Setaria faberi (SETFA). In words: Post-emergence herbicidal test, glasshouse. The protocol:
as §1

Assay [6] concerns Amaranthus palmeri (AMAPA). In words: Pre-emergence herbicidal test, glasshouse. The protocol:
as §1

Assay [7] deals with Amaranthus retoflexus (AMARE). The experiment in a line: Pre-emergence herbicidal test, glasshouse. The protocol: as §1
Assay [8] has as its system Echinochloa crus-galli (ECHCG). The experiment in a line: Pre-emergence herbicidal test, glasshouse. The protocol: as §1
Assay [9] deals with Ipomoea hederacea (IPOHE). The experiment in a line: Pre-emergence herbicidal test, glasshouse. The protocol:
as §1

For assay [10], the system named is Setaria faberi (SETFA). The experiment in a line: Pre-emergence herbicidal test, glasshouse. The protocol:
as §1

In the case of `N#Cc1ccc(-n2nc(C(F)(F)F)cc2Cc2ncc(Cl)cn2)cc1` [Compound 1.007, 4-[5-[(5-chloropyrimidin-2-yl)methyl]-3-(trifluoromethyl)pyrazol-1-yl]benzonitrile], the “AMAPA percentage damage caused to the plant (five-point scale)” value (“AMAPA percentage damage caused” for short) in assay [1] and in assay [6] was 5 (5=81-100%) each time. Moreover, the “AMARE percentage damage caused to the plant (five-point scale)” value (from here on “AMARE percentage damage caused”) in assay [2] and in assay [7] was 5 (5=81-100%) in each case. In addition, the “ECHCG percentage damage caused to the plant (five-point scale)” value (from here on “ECHCG percentage damage caused”) in [3] and in assay [8] was 5 (5=81-100%) throughout. In addition, the “IPOHE percentage damage caused to the plant (five-point scale)” value (from here on “IPOHE percentage damage caused”) is recorded as 3 (3=41-60%) in assay [4] and 5 (5=81-100%) in assay [9]. For the same compound, the “SETFA percentage damage caused to the plant (five-point scale)” value (from here on “SETFA percentage damage caused”) in the assay on Setaria faberi (SETFA) [5] and in the assay with Setaria faberi (SETFA) [10] was 5 (5=81-100%) in each case.
On to `FC(F)(F)c1cc(Cc2ncc(Cl)cn2)n(-c2ccc(Cl)cc2)n1` [Compound 1.008], for which the “AMAPA percentage damage caused” value in [1] and in [6] was 5 (5=81-100%) throughout. Also, the “AMARE percentage damage caused” value in [2] and in assay [7] was 5 (5=81-100%) each time. The “ECHCG percentage damage caused” value in assay [3] and in assay [8] was 5 (5=81-100%) each time. Also, the figures for the “IPOHE percentage damage caused” value in assay [4] and in assay [9] were 3 (3=41-60%) and 4 (4=61-80%), respectively. The “SETFA percentage damage caused” value in the assay on Setaria faberi (SETFA) [5] and with Setaria faberi (SETFA) [10] was 5 (5=81-100%) each time.
In the case of `Cc1cnc(Cc2cc(C(F)(F)F)nn2-c2ccc(C(F)(F)F)cc2)nc1` [Compound 1.011], the “AMAPA percentage damage caused” value in assay [1] and in assay [6] was 5 (5=81-100%) throughout. For the same compound, the “AMARE percentage damage caused” value in assay [2] and in assay [7] was 5 (5=81-100%) throughout. The “ECHCG percentage damage caused” value in assay [3] and in assay [8] was 5 (5=81-100%) throughout. Besides, the entries for the “IPOHE percentage damage caused” value in [4] and in assay [9] were 3 (3=41-60%) and 5 (5=81-100%), respectively. Moreover, the “SETFA percentage damage caused” value in the assay with Setaria faberi (SETFA) [5] and with Setaria faberi (SETFA) [10] was 5 (5=81-100%) in each case.
With `N#Cc1cnc(Cc2cc(C(F)(F)F)nn2-c2ccc(C(F)(F)F)cc2)nc1` [Compound 1.012], the “AMAPA percentage damage caused” value in assay [1] and in assay [6] was 5 (5=81-100%) each time. Also, the “AMARE percentage damage caused” value in assay [2] and in assay [7] was 5 (5=81-100%) each time. The “ECHCG percentage damage caused” value in assay [3] is given as 4 (4=61-80%); in [8], 5 (5=81-100%). The figures for the “IPOHE percentage damage caused” value in assay [4] and in assay [9] were 4 (4=61-80%) and 5 (5=81-100%), respectively. For the same compound, the “SETFA percentage damage caused” value with Setaria faberi (SETFA) [5] and with Setaria faberi (SETFA) [10] was 5 (5=81-100%) in each case.
